This note sets out measurements from patent US11339130B1 (Blade Therapeutics, Inc., priority 2016, dated 2022).

pIC50: −log10 of the molar value. Read-outs that look alike come from different tables or passages of the source.

Experiment [1] deals with T1, Human Calpain 9/NS1 (Homo sapiens, UniProt O14815).
T1 sequence (O14815 1-690): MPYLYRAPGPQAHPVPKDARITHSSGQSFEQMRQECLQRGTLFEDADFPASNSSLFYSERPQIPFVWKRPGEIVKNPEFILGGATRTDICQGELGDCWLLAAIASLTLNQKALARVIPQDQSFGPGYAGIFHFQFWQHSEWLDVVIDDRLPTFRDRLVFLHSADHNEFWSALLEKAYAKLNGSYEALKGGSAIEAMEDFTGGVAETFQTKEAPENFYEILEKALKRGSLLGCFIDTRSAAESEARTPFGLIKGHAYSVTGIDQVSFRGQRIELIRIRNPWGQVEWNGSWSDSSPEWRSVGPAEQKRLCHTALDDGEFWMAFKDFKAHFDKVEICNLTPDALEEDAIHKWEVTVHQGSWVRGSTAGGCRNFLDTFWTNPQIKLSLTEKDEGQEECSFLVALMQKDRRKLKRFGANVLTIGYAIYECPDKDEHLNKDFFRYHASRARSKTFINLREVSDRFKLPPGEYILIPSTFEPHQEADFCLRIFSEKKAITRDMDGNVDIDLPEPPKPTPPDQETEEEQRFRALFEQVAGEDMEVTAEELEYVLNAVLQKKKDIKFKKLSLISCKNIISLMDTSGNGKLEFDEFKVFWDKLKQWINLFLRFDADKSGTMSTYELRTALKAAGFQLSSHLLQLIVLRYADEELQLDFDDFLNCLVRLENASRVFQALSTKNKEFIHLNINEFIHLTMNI
T1 sequence (P04632 1-268 partner): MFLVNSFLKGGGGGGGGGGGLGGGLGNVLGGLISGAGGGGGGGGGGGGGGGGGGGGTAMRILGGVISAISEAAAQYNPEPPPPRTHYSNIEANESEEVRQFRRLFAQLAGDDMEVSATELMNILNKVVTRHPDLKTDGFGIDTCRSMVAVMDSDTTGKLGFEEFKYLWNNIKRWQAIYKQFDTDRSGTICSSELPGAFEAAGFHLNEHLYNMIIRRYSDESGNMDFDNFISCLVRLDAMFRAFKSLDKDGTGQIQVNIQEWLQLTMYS
As to the kind of experiment: Calpain inhibition continuous fluorescence (FRET) assay, Human Calpain 9/NS1. The class given is biochemical. The settings on record: read-out: Human Calpain 9/NS1 IC50. The method, boiled down:
(§1)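 Human calpains 1, 2 and 9 preincubated with inhibitor at 25 °C in 50 mM Tris pH 7.5, 100 mM NaCl, 1 mM DTT; reaction started with 5-FAM/QXL 520 FRET peptide plus CaCl2 for activation. Fluorescence (490/520 nm) followed 10 min; rates from 1-5 min slopes fitted to 4-parameter logistic for IC50.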

For experiment [2], the system named is Calpain activity in SH-SY5Y cells. Description: SH-SY5Y + AMC fluorescence assay (Suc-LLVY-AMC substrate). The class given is cell-based. The settings on record: read-out: SH-SY5Y + AMC IC50.
In experiment [3] the test system is Calpain activity in SH-SY5Y cells (SBDP-150). As to the kind of experiment: SH-SY5Y Spectrin western blot assay (SBDP-150 breakdown product, A23187-induced). The class given is cell-based. Conditions: Homo sapiens, SH-SY5Y cells, read-out: SH-SY5Y Spectrin IC50.
In experiment [4] the target is T2, Human Calpain 1/NS1 (Homo sapiens, UniProt P07384).
T2 sequence (P07384 1-714): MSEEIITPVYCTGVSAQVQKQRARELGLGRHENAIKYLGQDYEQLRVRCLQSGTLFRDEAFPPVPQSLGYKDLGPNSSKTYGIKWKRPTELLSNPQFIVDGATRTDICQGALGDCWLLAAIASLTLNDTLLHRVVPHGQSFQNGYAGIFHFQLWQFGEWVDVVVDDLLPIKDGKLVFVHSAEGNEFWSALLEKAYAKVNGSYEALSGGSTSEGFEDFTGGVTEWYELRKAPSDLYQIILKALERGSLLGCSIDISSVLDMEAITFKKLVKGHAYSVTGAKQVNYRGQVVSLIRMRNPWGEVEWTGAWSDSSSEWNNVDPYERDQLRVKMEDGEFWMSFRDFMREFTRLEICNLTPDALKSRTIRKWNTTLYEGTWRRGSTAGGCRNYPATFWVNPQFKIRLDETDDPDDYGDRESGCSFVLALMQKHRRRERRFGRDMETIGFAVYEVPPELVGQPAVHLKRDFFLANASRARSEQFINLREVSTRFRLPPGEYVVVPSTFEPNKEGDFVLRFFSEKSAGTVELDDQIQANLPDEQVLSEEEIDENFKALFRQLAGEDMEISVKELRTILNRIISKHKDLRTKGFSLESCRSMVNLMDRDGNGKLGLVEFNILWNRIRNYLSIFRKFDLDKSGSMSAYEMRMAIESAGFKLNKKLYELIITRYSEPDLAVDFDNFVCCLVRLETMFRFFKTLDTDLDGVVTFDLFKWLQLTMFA
T2 sequence (P04632 1-268 partner): T1 sequence (P04632 1-268 partner)
Description: Calpain inhibition continuous fluorescence (FRET) assay, Human Calpain 1/NS1. The class given is biochemical. Conditions: read-out: Human Calpain 1/NS1 IC50. The method, boiled down: as §1

In experiment [5] the target is T3, Human Calpain 2/NS1 (Homo sapiens, UniProt P17655).
T3 sequence (P17655 1-700): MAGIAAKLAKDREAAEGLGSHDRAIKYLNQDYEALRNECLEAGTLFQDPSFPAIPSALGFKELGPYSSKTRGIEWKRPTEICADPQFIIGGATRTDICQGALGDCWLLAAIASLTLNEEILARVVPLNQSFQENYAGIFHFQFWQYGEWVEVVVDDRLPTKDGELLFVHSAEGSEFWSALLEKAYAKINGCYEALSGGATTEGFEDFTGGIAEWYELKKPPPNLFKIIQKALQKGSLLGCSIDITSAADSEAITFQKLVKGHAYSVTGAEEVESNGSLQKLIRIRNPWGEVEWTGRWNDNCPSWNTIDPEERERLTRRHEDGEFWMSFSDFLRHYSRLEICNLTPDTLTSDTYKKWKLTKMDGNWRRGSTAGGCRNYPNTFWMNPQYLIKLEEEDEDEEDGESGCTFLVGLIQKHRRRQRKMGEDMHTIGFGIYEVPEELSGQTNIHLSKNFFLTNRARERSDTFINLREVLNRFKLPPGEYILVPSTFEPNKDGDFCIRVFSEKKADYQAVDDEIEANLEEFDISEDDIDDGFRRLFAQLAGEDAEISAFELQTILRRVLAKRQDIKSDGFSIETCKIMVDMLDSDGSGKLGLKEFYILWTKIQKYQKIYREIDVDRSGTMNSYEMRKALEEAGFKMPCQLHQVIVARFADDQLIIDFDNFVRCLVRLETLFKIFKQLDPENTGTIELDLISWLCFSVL
T3 sequence (P04632 1-268 partner): T1 sequence (P04632 1-268 partner)
As to the kind of experiment: Calpain inhibition continuous fluorescence (FRET) assay, Human Calpain 2/NS1. The class given is biochemical. Conditions: read-out: Human Calpain 2/NS1 IC50. The gist of the method: as §1

Setting [6] is: A23187-induced SBDP-150, western blot.
Setting [7] is: Column D, A23187-induced SBDP-150.

Turning to `NC(=O)C(=O)C(Cc1ccccc1)NC(=O)c1oc(C(F)(F)F)nc1-c1ccccc1F` (stereo not drawn) [Compound 358, N-(4-amino-3,4-dioxo-1-phenylbutan-2-yl)-4-(2-fluorophenyl)-2-(trifluoromethyl)oxazole-5-carboxamide], the pIC50 in experiment [1] was greater than 5.52; in experiment [2], greater than 5.00; in experiment [3] (setting [6]), 4.60 to 5.00; in experiment [4], greater than 5.52; in experiment [5] it was greater than 5.52.

Turning to `Cc1cc(C(=O)N[C@@H](Cc2ccccc2)C(=O)C(N)=O)n(-c2ccc(-c3ccccc3C)cc2)n1` [Compound 202, (S)—N-(4-amino-3,4-dioxo-1-phenylbutan-2-yl)-3-methyl-1-(2′-methyl-[1,1′-biphenyl]-4-yl)-1H-pyrazole-5-carboxamide], the pIC50 in experiment [1] (Column C) was greater than 5.52; in experiment [2] (Column E) it was less than 4.60; in experiment [3] (setting [7]), 4.60 to 5.00; in experiment [4] (Column A), greater than 5.52; in experiment [5] (Column B) it was greater than 5.52.

Regarding `Cc1cc(C(=O)N[C@@H](Cc2ccccc2)C(=O)C(N)=O)n(-c2ccncn2)n1` [Compound 245, (S)—N-(4-amino-3,4-dioxo-1-phenylbutan-2-yl)-3-methyl-1-(pyrimidin-4-yl)-1H-pyrazole-5-carboxamide], the pIC50 in experiment [1] (Column C) is greater than 5.52; in experiment [2] (Column E), greater than 5.00; in experiment [3] (setting [7]) it was 4.60 to 5.00; in experiment [4] (Column A), greater than 5.52; in experiment [5] (Column B), greater than 5.52.

As for `NC(=O)C(=O)C(Cc1ccccc1)NC(=O)c1cn(C(F)F)nc1-c1cncc(F)c1` (stereo not drawn) [Compound 586, N-(4-amino-3,4-dioxo-1-phenylbutan-2-yl)-1-(difluoromethyl)-3-(5-fluoropyridin-3-yl)-1H-pyrazole-4-carboxamide], the pIC50 is greater than 5.52 in experiment [1]; 4.60 to 5.00 in experiment [2]; 4.60 to 5.00 in experiment [3] (setting [6]); greater than 5.52 in experiment [4]; greater than 5.52 in experiment [5].

With `Cc1cc(C(=O)NC(Cc2ccccc2)C(=O)C(N)=O)n(-c2ccc(OC3CCOCC3)cc2)n1` (stereo not drawn) [Compound 440, N-(4-amino-3,4-dioxo-1-phenylbutan-2-yl)-3-methyl-1-(4-((tetrahydro-2H-pyran-4-yl)oxy)phenyl)-1H-pyrazole-5-carboxamide], the pIC50 in experiment [1] is greater than 5.52; in experiment [2], less than 4.60; in experiment [3] (setting [6]), greater than 5.00; in experiment [4] it was greater than 5.52; in experiment [5], greater than 5.52.

For the compound `NC(=O)C(=O)[C@@H](Cc1ccccc1)NC(=O)c1cn(C(F)F)nc1-c1ccccc1` [Compound 380, (R)—N-(4-amino-3,4-dioxo-1-phenylbutan-2-yl)-1-(difluoromethyl)-3-phenyl-1H-pyrazole-4-carboxamide], the pIC50 is greater than 5.52 in experiment [1]; greater than 5.00 in experiment [2]; greater than 5.00 in experiment [3] (setting [6]); greater than 5.52 in experiment [4]; greater than 5.52 in experiment [5].

Turning to `Cc1nc(-c2ccccc2F)c(C(=O)NC(C=O)Cc2ccccc2)o1` (stereo not drawn) [Compound 402, 4-(2-fluorophenyl)-2-methyl-N-(1-oxo-3-phenylpropan-2-yl)oxazole-5-carboxamide], the pIC50 in experiment [1] is greater than 5.52; in experiment [2], less than 4.60; in experiment [3] (setting [6]), 4.60 to 5.00; in experiment [4], greater than 5.52; in experiment [5] it was greater than 5.52.

In the case of `Cc1nnn(-c2ccccc2)c1C(=O)N[C@@H](Cc1ccccc1)C(=O)C(N)=O` [Compound 55, (S)—N-(4-amino-3,4-dioxo-1-phenylbutan-2-yl)-4-methyl-1-phenyl-1H-1,2,3-triazole-5-carboxamide], the pIC50 in experiment [1] (Column C) is greater than 5.52; in experiment [2] (Column E), less than 4.60; in experiment [3] (setting [7]) it was greater than 5.00; in experiment [4] (Column A) it was greater than 5.52; in experiment [5] (Column B) it was greater than 5.52.

Regarding `NC(=O)C(=O)[C@H](Cc1ccccc1)NC(=O)c1cncn1-c1ccc(-c2ccccc2)nn1` [Compound 200, (S)—N-(4-amino-3,4-dioxo-1-phenylbutan-2-yl)-1-(6-phenylpyridazin-3-yl)-1H-imidazole-5-carboxamide], the pIC50 in experiment [1] (Column C) is greater than 5.52; in experiment [2] (Column E) it was less than 4.60; in experiment [3] (setting [7]), 4.60 to 5.00; in experiment [4] (Column A) it was greater than 5.52; in experiment [5] (Column B) it was greater than 5.52.

On to `Cc1nc(-c2ccccc2)c(C(=O)N[C@@H](Cc2ccc(F)cc2)C(=O)C(N)=O)o1` [Compound 107, (S)—N-(4-amino-1-(4-fluorophenyl)-3,4-dioxobutan-2-yl)-2-methyl-4-phenyloxazole-5-carboxamide], for which the pIC50 was greater than 5.52 in experiment [1] (Column C); greater than 5.00 in experiment [2] (Column E); greater than 5.00 in experiment [3] (setting [7]); greater than 5.52 in experiment [4] (Column A); greater than 5.52 in experiment [5] (Column B).

As for `Cc1cc(C(=O)N[C@@H](Cc2ccccc2)C(=O)C(N)=O)n(-c2cccc(CNC(=O)Cc3ccccc3)c2)n1` [Compound 144, (S)—N-(4-amino-3,4-dioxo-1-phenylbutan-2-yl)-3-methyl-1-(3-((2-phenylacetamido)methyl)phenyl)-1H-pyrazole-5-carboxamide], the pIC50 was greater than 5.52 in experiment [1] (Column C); greater than 5.00 in experiment [2] (Column E); greater than 5.00 in experiment [3] (setting [7]); greater than 5.52 in experiment [4] (Column A); greater than 5.52 in experiment [5] (Column B).

For the compound `NC(=O)C(=O)C(Cc1ccccc1)NC(=O)c1cn(C(F)F)nc1-c1cccc2c1OCO2` (stereo not drawn) [Compound 563, N-(4-amino-3,4-dioxo-1-phenylbutan-2-yl)-3-(benzo[d][1,3]dioxol-4-yl)-1-(difluoromethyl)-1H-pyrazole-4-carboxamide], the pIC50 in experiment [1] was greater than 5.52; in experiment [2], greater than 5.00; in experiment [3] (setting [6]), greater than 5.00; in experiment [4] it was greater than 5.52; in experiment [5] it was greater than 5.52.
